{"source": "patent US20240156698A1", "about": "“BIOCIDE COMPOSITIONS AND USES THEREOF” (PHARMOTECH SA, priority 2021, published 2024)", "key": {"CB2 receptors": {"molecular_target": "CB2 receptors (Homo sapiens, UniProt P34972)", "sequence (P34972 whole entry)": "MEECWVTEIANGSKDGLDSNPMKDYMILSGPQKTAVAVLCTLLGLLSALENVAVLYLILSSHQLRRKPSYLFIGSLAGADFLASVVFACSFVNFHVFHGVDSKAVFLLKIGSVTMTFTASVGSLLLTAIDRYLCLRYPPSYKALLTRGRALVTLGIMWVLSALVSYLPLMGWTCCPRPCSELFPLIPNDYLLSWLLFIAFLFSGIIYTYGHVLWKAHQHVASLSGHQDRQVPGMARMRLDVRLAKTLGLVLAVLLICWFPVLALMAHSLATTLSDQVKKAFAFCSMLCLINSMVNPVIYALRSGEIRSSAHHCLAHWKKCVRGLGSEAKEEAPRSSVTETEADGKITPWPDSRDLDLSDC", "settings": "compared with THC; cited from earlier work"}, "[1]": {"assay": "Skin absorption, Franz diffusion cells with dermatomed skin explants", "format": "in vitro ADME", "procedure": "The transdermal absorption tests are carried out using a modified methodology of Franz diffusion cells, in which a semi-permeable membrane is used, such as reconstructed skin or skin explants. The membrane is located between the (i) donor and (ii) receptor compartments with the stratum corneum facing upward. The product is applied to the exposed stratum corneum in the donor compartment. Under the membrane, the receiving chamber contains a solution that simulates physiological conditions and where the tested substances are highly soluble.\nAfter the product is delivered to the surface of the skin, samples are taken from the receptor compartment at predetermined times to determine the amount of substance accumulated in the receptor compartment as a function of time. In addition, at the end of the test, the extraction of the substance that has been retained in the skin is carried out. For the quantification of all the samples obtained, a suitable analytical method is necessary for each substance investigated. The skin explants were dermatomed (the dermatome device allows to cut skin layers of the skin at a determined thickness) at 200 μm thickness and placed on Franz cells, the receptor compartment was filled with PBS solution, used to simulate the physiological fluid and allowed to equilibrate for at least 30 minutes. Then, receptor solution was added into the donor compartment and the integrity of the skin was determined. After removing the solution and drying the donor, the composition of the invention 3 μl/0.38 cm2 (7.9 uL/cm2) was administered into the donor compartment.\nSamples from the receptor compartment were taken at predetermined times to obtain the amount of active permeated. Said samples were filtered on 0.2 μm pore size cellulose acetate filters and analyzed by HPLC. The sample volume taken was replaced with fresh receptor solution. After taking the last sample from the receptor compartment, a first wash of the skin surface was performed with PBS, then, the Franz cells were disassembled.\nThe skin was carefully dried and the stratum corneum was removed by tape stripping. Tapes were put in 2 mL of extraction medium for at least 2 hours. The skin diffusion area was cut into small pieces and placed in extraction liquid under continuous stirring for 1 hour. After filtering the samples obtained, they were analyzed by HPLC to obtain the amount of substance retained on the skin."}, "[2]": {"settings": "2 hours after application of the composition to the skin"}, "[3]": {"settings": "composition of the invention 7.9 uL/cm2 applied to skin explant, Franz cell"}}}
{"smiles": "C=C(C)[C@@H]1CCC(C)=C[C@H]1c1c(O)cc(CCCCC)cc1O", "note": "[CBD, 2-[(1R,6R)-6-isopropenyl-3-methylcyclohex-2-en-1-yl]-5-pentylbenzene-1,3-diol]", "values": [{"measurement": "Affinity for CB2 receptors", "setting": "CB2 receptors", "result": "very low affinity"}, {"measurement": "Permeation of CBD (receptor compartment)", "setting": "[1]; 1 hour after application of the composition to the skin", "result": "No permeation"}, {"measurement": "CBD in the stratum corneum (tape stripping)", "setting": "[1]; [2]", "result": "No CBD was found"}, {"measurement": "Permeation of CBD (receptor compartment)", "setting": "[1]; [2]", "result": "No permeation"}, {"measurement": "CBD absorbed in the skin", "setting": "[1]; [3]", "result": "2.38±1.52", "unit": "μg CBD/cm^2"}, {"measurement": "CBD absorbed in the skin as share of the CBD applied on the top of the skin", "setting": "[1]; [3]", "result": 15.85, "unit": "%"}]}
